Like-named read-outs stand apart in the source and are kept apart here.
What was measured:
soft-tissue sarcoma = settings: patients with soft-tissue sarcoma, pivotal clinical trial; cited from earlier work
[1] = tested on: MesSa human sarcoma xenograft; assay type: in vivo
Description: The xenograft model used the MesSa cell line (ATCC: CRL-1976 human sarcoma cells) (in vitro cell passage number 67 from frozen stock (number 65) on day 5). Tumour cells (1×10^7) (trypsinated) (100 μL in 100 μL matrigel) were injected subcutaneously (s.c.) into the right flank of each mouse, with one node per mouse. The time from cell dilution to the end of injection was 24 minutes. Each mouse was anaesthetised with Hypnorm/Dormicum subcutaneously (s.c.) or isofluran (by inhalation) when the tumour cells were injected.
Four groups, each of 12 mice, were treated with vehicle, belinostat only, trabectedin only, or both belinostat and trabectedin, for three weeks, as summarised in the following table. On days that belinostat was administered, it was administered twice, with a 3 hour interval. On days that both belinostat and trabectedin were administered, the trabectedin was administered between the two belinostat administrations.
Mice were enrolled in treatment groups following confirmation of xenograft take. Both tumour diameter and body weight were measured on days: 0, 3, 7, 10, 14, 17, and 21. Animals were sacrificed (by cervical dislocation) on day 21. Tumour weight was measured on day 21 (following sacrifice).
“T/C%” denotes tumour weight following treatment as a percent of control, using Mann-Whitney statistical analysis. The results (median tumour volume) are also illustrated in FIG. 4.
“T/C%” denotes tumour weight following treatment as a percent of control, using Mann-Whitney statistical analysis. The results (median tumour weight) are also illustrated in FIG. 5.

[2] = tested on: Osteocarcinoma Cells (Saos-2); test: Clonogenic assay (continuous co-incubation), osteocarcinoma cells Saos-2; assay type: cell-based
Description: (§1) The effects of the combination of belinostat and trabectedin were studied in clonogenic assays. The clonogenic assay assesses anti-clonogenic activity of tumour cells. The “target” in clonogenic assay is all biochemical and molecular elements or alterations characteristic of tumour cells rather than specific single targets.
(§2) Cells were grown for at least 1 week after thawing in standard media to obtain a sub-confluent culture. The 3.3% agar was boiled for at least 60 minutes in a water bath on an electrical heating plate (30 mL PBS+990 mg Bacto agar). The 90 mL growth medium (RPMI-1640+10% FCS) was heated in a water bath at 37° C. Cells were centrifuged in 50 mL centrifuge tubes at 1200 rpm for 5 minutes at room temperature.
(§3) Drug (belinostat or trabectedin) was dissolved and diluted with growth medium or DMSO to a concentration of […] the final concentration.
(§4) Cells were suspended in 7 mL growth medium using a 1 mL syringe and an 18 gauge needle by pumping the solution up and down 15 times. Cells were stained with Nigrosin (0.3 mL cells+0.3 mL 0.1% Nigrosin in PBS), and counted after 8 minutes using a Fuchs-Rosenthal counting chamber.
(§5) Then, 10 mL agar and 90 mL growth medium was mixed (0.33%) and heated in a water bath at 37° C. 0.35 mL cell suspension was transferred to 10 mL conical centrifuge tubes using a dispenser. 35 μL drug (belinostat or trabectedin) was added. 3.15 mL agar/medium was added to each tube (maximum 8 tubes at the time).
(§6) For each belinostat combination tested series of 7 titrations corresponding to approximately 30, 40, 50, 60, 70, 80, 90% inhibition was tested as mono-therapy and in combination.
(§7) The Combination Index (CI) provides a measure of the interaction: A CI value of less than 1 indicates synergy, a CI value of 1 indicates an additive effect, and a CI value of greater than 1 indicates antagonism.

Sarcoma Cells (MesSa) = test: Clonogenic assay (continuous co-incubation), sarcoma cells MesSa; assay type: cell-based, human
Description: as §1, §2, §3, §4, §5, §6, §7

[3] = tested on: Ovarian Cancer Cells (A2780); test: Clonogenic assay (continuous co-incubation), ovarian cancer cells A2780; assay type: cell-based
Description: as §1, §2, §3, §4, §5, §6, §7

[4] = physiological pH; cited from earlier work
[5] = day 0, trabectedin 0.1 mg/kg i.v. once, days 0, 3, 7, 10
[6] = day 4, trabectedin 0.1 mg/kg i.v. once, days 0, 3, 7, 10
[7] = day 7, trabectedin 0.1 mg/kg i.v. once, days 0, 3, 7, 10
[8] = day 10, trabectedin 0.1 mg/kg i.v. once, days 0, 3, 7, 10
[9] = day 14, trabectedin 0.1 mg/kg i.v. once, days 0, 3, 7, 10
[10] = day 17, trabectedin 0.1 mg/kg i.v. once, days 0, 3, 7, 10
[11] = day 0, belinostat 40 mg/kg i.p. twice daily, days 0-4, 7-11, 14-18
[12] = day 4, belinostat 40 mg/kg i.p. twice daily, days 0-4, 7-11, 14-18
[13] = day 7, belinostat 40 mg/kg i.p. twice daily, days 0-4, 7-11, 14-18
[14] = day 10, belinostat 40 mg/kg i.p. twice daily, days 0-4, 7-11, 14-18
[15] = day 14, belinostat 40 mg/kg i.p. twice daily, days 0-4, 7-11, 14-18
[16] = day 17, belinostat 40 mg/kg i.p. twice daily, days 0-4, 7-11, 14-18

SMILES: COc1cc2c(cc1O)CCN[C@]21CS[C@@H]2c3c(OC(C)=O)c(C)c4c(c3[C@H](COC1=O)N1[C@@H]2[C@H]2c3c(cc(C)c(OC)c3O)C[C@@H]([C@@H]1O)N2C)OCO4 (relative stereo) [Trabectedin, spiro[6,16-(epithiopropanoxymethano)-7,13-imino-12H-1,3-dioxolo[7,8]isoquino[3,2-b][3]benzazocine-20,1′(2′H)-isoquinolin]-19-one, 5-(acetyloxy)-3′,4′,6,6a,7,13,14,16-octahydro-6′,8,14-trihydroxy-7′,9-dimethoxy-4,10,23-trimethyl-, [6R-(6α,6aβ,7β,13β,14β,16α,20R*)]]
- time-to-tumour-progression (TTP) (soft-tissue sarcoma): 3.9 months
- Median Tumour Volume, Trabectedin Only [1, 5]: 87 mm^3
- T/C % (tumour volume), Trabectedin Only [1, 5]: 100%
- Median Tumour Volume, Trabectedin Only [1, 6]: 87 mm^3
- T/C % (tumour volume), Trabectedin Only [1, 6]: 100%
- Median Tumour Volume, Trabectedin Only [1, 7]: 57 mm^3
- T/C % (tumour volume), Trabectedin Only [1, 7]: 50%
- Median Tumour Volume, Trabectedin Only [1, 8]: 65 mm^3
- T/C % (tumour volume), Trabectedin Only [1, 8]: 29%
- Median Tumour Volume, Trabectedin Only [1, 9]: 76 mm^3
- T/C % (tumour volume), Trabectedin Only [1, 9]: 31%
- Median Tumour Volume, Trabectedin Only [1, 10]: 134 mm^3
- T/C % (tumour volume), Trabectedin Only [1, 10]: 30%
- Median Tumour Volume, Trabectedin Only ([1]; day 21, trabectedin 0.1 mg/kg i.v. once, days 0, 3, 7, 10): 167 mm^3
- T/C % (tumour volume), Trabectedin Only ([1]; day 21, trabectedin 0.1 mg/kg i.v. once, days 0, 3, 7, 10, p=0.01): 25%
- T/C % (tumour weight), Trabectedin Alone ([1]; day 21, trabectedin 0.1 mg/kg i.v. once, days 0, 3, 7, 10, p=0.027): 30%
- reduction in growth (tumour volume) ([1]; day 21, trabectedin 0.1 mg/kg, once daily, i.v., days 0, 3, 7, 10, p=0.01): 75%
- reduction in growth (tumour weight) ([1]; day 21, trabectedin 0.1 mg/kg, once daily, i.v., days 0, 3, 7, 10, p=0.027): 70%
- tumour growth delay (in words) ([1]; trabectedin 0.1 mg/kg, once daily, i.v., days 0, 3, 7, 10 of a 3 week cycle): significant tumour growth delay
- Trabectedin Alone (% survival) ([2]; trabectedin 0.005 nM): 79.99%
- Trabectedin Alone (% survival) ([2]; trabectedin 0.010 nM): 77.74%
- Trabectedin Alone (% survival) ([2]; trabectedin 0.09 nM): 74.94%
- Trabectedin Alone (% survival) ([2]; trabectedin 0.13 nM): 69.14%
- Trabectedin Alone (% survival) ([2]; trabectedin 0.17 nM): 60.61%
- Trabectedin Alone (% survival) ([2]; trabectedin 0.21 nM): 65.08%
- Trabectedin Alone (% survival) ([2]; trabectedin 0.26 nM): 49.99%
- Trabectedin Alone (% survival) (Sarcoma Cells (MesSa); trabectedin 0.20 nM): 86.17%
- Trabectedin Alone (% survival) (Sarcoma Cells (MesSa); trabectedin 0.46 nM): 87.51%
- Trabectedin Alone (% survival) (Sarcoma Cells (MesSa); trabectedin 0.64 nM): 81.84%
- Trabectedin Alone (% survival) (Sarcoma Cells (MesSa); trabectedin 0.75 nM): 67.10%
- Trabectedin Alone (% survival) (Sarcoma Cells (MesSa); trabectedin 0.86 nM): 42.38%
- Trabectedin Alone (% survival) (Sarcoma Cells (MesSa); trabectedin 0.97 nM): 33.98%
- Trabectedin Alone (% survival) (Sarcoma Cells (MesSa); trabectedin 1.1 nM): 26.55%
- Trabectedin Alone (% survival) ([3]; trabectedin 0.66 nM): 75.33%
- Trabectedin Alone (% survival) ([3]; trabectedin 0.73 nM): 62.12%
- Trabectedin Alone (% survival) ([3]; trabectedin 0.80 nM): 49.62%
- Trabectedin Alone (% survival) ([3]; trabectedin 0.84 nM): 44.20%
- Trabectedin Alone (% survival) ([3]; trabectedin 0.88 nM): 44.06%
- Trabectedin Alone (% survival) ([3]; trabectedin 0.92 nM): 36.20%
- Trabectedin Alone (% survival) ([3]; trabectedin 0.96 nM): 28.69%

SMILES: O=C(/C=C/c1cccc(S(=O)(=O)Nc2ccccc2)c1)NO [Belinostat, (E)-N-hydroxy-3-(3-phenylsulfamoyl-phenyl)-acrylamide]
- tumour growth delay (in words) ([1]; belinostat 40 mg/kg, twice daily, i.p., 5 days per week for 3 weeks): some but not significant tumour growth delay
- Median Tumour Volume, Belinostat Only [1, 11]: 65 mm^3
- T/C % (tumour volume), Belinostat Only [1, 11]: 75%
- Median Tumour Volume, Belinostat Only [1, 12]: 71 mm^3
- T/C % (tumour volume), Belinostat Only [1, 12]: 81%
- Median Tumour Volume, Belinostat Only [1, 13]: 76 mm^3
- T/C % (tumour volume), Belinostat Only [1, 13]: 67%
- Median Tumour Volume, Belinostat Only [1, 14]: 87 mm^3
- T/C % (tumour volume), Belinostat Only [1, 14]: 39%
- Median Tumour Volume, Belinostat Only [1, 15]: 144 mm^3
- T/C % (tumour volume), Belinostat Only [1, 15]: 59%
- Median Tumour Volume, Belinostat Only [1, 16]: 295 mm^3
- T/C % (tumour volume), Belinostat Only [1, 16]: 66%
- Median Tumour Volume, Belinostat Only ([1]; day 21, belinostat 40 mg/kg i.p. twice daily, days 0-4, 7-11, 14-18): 449 mm^3
- T/C % (tumour volume), Belinostat Only ([1]; day 21, belinostat 40 mg/kg i.p. twice daily, days 0-4, 7-11, 14-18, p=0.10): 67%
- T/C % (tumour weight), Belinostat Alone ([1]; day 21, belinostat 40 mg/kg i.p. twice daily, days 0-4, 7-11, 14-18, p=0.180): 77%
- reduction in growth (tumour volume) ([1]; day 21, belinostat 40 mg/kg, twice daily, i.p., 5 days per week for 3 weeks, p=0.10): 33%
- reduction in growth (tumour weight) ([1]; day 21, belinostat 40 mg/kg, twice daily, i.p., 5 days per week for 3 weeks, p=0.180): 23%
- Belinostat Alone (% survival) ([2]; belinostat 0.065 μM): 86.96%
- Belinostat Alone (% survival) ([2]; belinostat 0.10 μM): 66.47%
- Belinostat Alone (% survival) ([2]; belinostat 0.115 μM): 69.29%
- Belinostat Alone (% survival) ([2]; belinostat 0.13 μM): 74.52%
- Belinostat Alone (% survival) ([2]; belinostat 0.145 μM): 45.50%
- Belinostat Alone (% survival) ([2]; belinostat 0.19 μM): 38.34%
- Belinostat Alone (% survival) ([2]; belinostat 0.225 μM): 30.59%
- Belinostat Alone (% survival) (Sarcoma Cells (MesSa); belinostat 0.27 μM): 88.48%
- Belinostat Alone (% survival) (Sarcoma Cells (MesSa); belinostat 0.37 μM): 68.82%
- Belinostat Alone (% survival) (Sarcoma Cells (MesSa); belinostat 0.48 μM): 57.06%
- Belinostat Alone (% survival) (Sarcoma Cells (MesSa); belinostat 0.57 μM): 42.92%
- Belinostat Alone (% survival) (Sarcoma Cells (MesSa); belinostat 0.66 μM): 37.33%
- Belinostat Alone (% survival) (Sarcoma Cells (MesSa); belinostat 0.80 μM): 17.90%
- Belinostat Alone (% survival) (Sarcoma Cells (MesSa); belinostat 1.0 μM): 2.75%
- Belinostat Alone (% survival) ([3]; belinostat 0.04 μM): 97.74%
- Belinostat Alone (% survival) ([3]; belinostat 0.36 μM): 82.64%
- Belinostat Alone (% survival) ([3]; belinostat 0.47 μM): 65.30%
- Belinostat Alone (% survival) ([3]; belinostat 0.56 μM): 31.60%
- Belinostat Alone (% survival) ([3]; belinostat 0.63 μM): 15.82%
- Belinostat Alone (% survival) ([3]; belinostat 0.68 μM): 7.19%
- Belinostat Alone (% survival) ([3]; belinostat 0.73 μM): 2.42%
- solubility in water [4]: sparingly soluble

Reference: patent publication US20150231134A1, “Combination Therapy using Belinostat and Trabectedin” (Onxeo DK, Branch of Onxeo S.A., France, priority 2012, published 2015)
